The values that follow are results of earlier work, collected in patent publication US20080057122A1, “Acetaminophen pharmaceutical compositions” (priority 2006, published 2008).

With `CC(=O)Nc1ccc(O)cc1` [acetaminophen], the “time in which peak concentrations are reached” value (Darvocet-N 100 immediate release tablets) is ≤ 2 h.
With `CCC(=O)O[C@](Cc1ccccc1)(c1ccccc1)[C@H](C)CN(C)C` [propoxyphene], where the note is “in vivo”, the early half-life is 6 to 12 h and the terminal half-life result was “approximately 20 hours”.
